Reference: patent EP0258134A1, “Therapeutical compositions containing benzhydryl thiomethane derivatives” (LABORATOIRE L. LAFON, priority 1986, dated 1988)
Marks after values point to notes of the source that are not given here.

How the values were obtained:
Assay type in all cases: in vivo
souris [1] = assay: Pretoxicity, i.p., 3 mice per dose
Protocol: (§1) Le composé CRL 41 334, en suspension dans une solution de gomme arabique, a été administré par voie intrapéritonéale sous un volume de 20 ml/kg chez la souris (mâle, NMRI, C.E.R. Janvier) et de 5 ml/kg chez le rat (mâle, CD₁; SPRAGUE DAWLEY, Charles River).
I - PRETOXICITE ( 3 souris par dose)
(§2) Le CRL 41 055, en suspension dans une solution de gomme arabique, a été administré par voie intrapéritonéale sous un volume de 20 ml/kg chez la souris (mâle, NMRI, Evic Ceba).
Prétoxicite (3 souris par dose)
(§3) Le CRL 40 956, en suspension dans une solution de gomme arabique a été administré par voie intrapéritonéale sous un volume de 20 ml/kg chez la souris (mâle, NMRI, Evic Céba) et de 5 ml/kg chez le rat (mâle, CD₁, Sprague Dawley, Charles River).
Prétoxicité ( 3 souris par dose)

souris [2] = assay: Global behaviour and reactivities, mouse, i.p.
Protocol: as §1
Des lots de 3 animaux sont observés avant, puis 15 mn, 30 mn, 1h, 2h, 3h et 24 heures après l'administration du composé CRL 41 334.
as §2, §3
Des lots de 3 animaux sont observés avant, puis 15 mn, 30 mn, 1 h, 2 h, 3 h et 24 heures après l'administration de CRL 40 956.

rat = assay: Search for stereotyped movements, rat
From the text: Des lots de 6 rats reçoivent une injection du composé CRL 41 334 ou d'amphétamine, puis sont immédiatement placés dans des boîtes de petites dimensions (20 x 10 x 10 cm) où leur comportement stéréotypeé est coté de 0 à 3 jusqu'à extinction de l'effet.

souris [3] = assay: Interaction with oxotremorine, mouse; settings: oxotrémorine 0,5 mg/kg i.p.
Protocol: Le composé CRL 41 334 est administré à des lots de 6 souris une demi-heure avant l'injection intrapéritonéale de 0,5 mg/kg d'oxotrémorine.

souris [4] = assay: Electroshock; settings: 128 mg/kg
From the text: Le test est pratiqué sur des lots de 10 souris, une demi-heure après l'administration du composé CRL 41 334.

souris [5] = assay: Spontaneous motility (actimeter)
Protocol: Après avoir reçu le composé CRL 41 334, les souris sont placées en actimètre où leur motilité est enregistrée pendant 30 minutes.
Une demi-heure après avoir reçu le CRL 41 055, les souris (6 par dose, 12 témoins) sont placées en actimètre où leur motilité est enregistrée pendant 30 minutes.
Une demi-heure après avoir reçu le CRL 40 956, les souris (6 par dose, 12 témoins) sont placées en actimètre ou leur motilité est enregistrée pendant 30 minutes.

souris [6] = assay: Intergroup aggressiveness; settings: 32 et 128 mg/kg
Protocol: Après avoir séjourné pendant 3 semaines dans chacune des moitiés d'une cage séparées par une cloison opaque, des groupes de 3 souris reçoivent le composé CRL 41 334. Une demi-heure plus tard, les deux groupes d'une même cage sont réunis par retrait de la cloison et on note le nombre de combats qui surviennent en 10 minutes. Le test est pratiqué pour moitié sur les souris habituelles (NMRI, C.E.R. Janvier) et pour moitié sur des souris NMRI (Iffa Credo).
Après avoir séjourné pendant 3 semaines dans chacune des moitiés d'une cage séparée par une cloison opaque, des groupes de 3 souris reçoivent le CRL 40 956. Une demi-heure plus tard, les deux groupes d'une même cage sont réunis par retrait de la cloison et on note le nombre de combats qui surviennent en 10 minutes.

[7] = test system: souris femelles de souche OF₁; assay: Delayed hypersensitivity reaction to sheep red blood cells; settings: for Ind. Activité / % d'augmentation du coussinet (mm) m: voie orale; for % d'augmentation du coussinet (mm) m: trois jours avant immunisation
From the text: Selon la méthode de Miller, Lagrange et Mackaness ("Immunopotentiation with BCG II modulation of the response to sheep red blood cells", Journal of the National Cancer Institute 1973, 51, 5, 1669 - 1676).
Le composé à tester est administré par voie orale a des souris femelles de souche OF₁ trois jours avant immunisation.
Les résultats sont exprimés en pourcentage d'augmentation du coussinet plantaire.

NC(=O)CSC(c1ccc(F)cc1)c1ccc(F)cc1 [CRL 41 334, 2-(4,4ʹ-difluorobenzhydrylthio)acétamide]
symptômes (souris [1]; 128 mg/kg i.p.): sédation, puis excitation 2 heures après | symptômes (souris [1]; 256 mg/kg i.p.): sédation suivie d'excitation 2 heures après l'injection | convulsions (souris [1]; 256 mg/kg i.p., à 15 minutes): 3/3 | symptômes (souris [1]; 512 mg/kg i.p.): démarche titubante | convulsions (souris [1]; 512 mg/kg i.p., pendant les 10 premières minutes): 3/3 | mortalité (souris [1]; 512 mg/kg i.p., 1/3 en 15 minutes et 2/3 en 24 heures): 3/3 | comportement et réactivités (souris [2]; souris, 128 mg/kg i.p.): sédation pendant 30 minutes | Hypothermie (souris [2]; souris, 128 mg/kg i.p., à 30 minutes, durée 1 heure): -4,1 ° | comportement et réactivités (souris [2]; souris, 2, 8 et 32 mg/kg i.p.): pas de modifications nettes du comportement et des réactivités | durée des stéréotypies (rat; 128 mg/kg): > 420 min | stéréotypies atteignent leur maximum (rat; 128 mg/kg): 120 to 150 min | intensité des stéréotypies (rat; 64 et 128 mg/kg, compared with amphétamine): comparable à celle obtenue respectivement avec 1 et 2 mg | Action sur la température (souris [3]; 128 mg/kg): aggrave l'hypothermie induite par l'oxotrémorine | Action sur les symptômes chlolinergiques périphériques (souris [3]; 128 mg/kg): diminue la défécation sans modifier la salivation et la lacrymation | Action sur les tremblements (souris [3]): ne sont pas modifiés | effets convulsivants de l'électrochoc (souris [4]): s'oppose faiblement aux effets convulsivants | effets létaux de l'électrochoc (souris [4]): sans modifier les effets létaux | motilité spontanée (souris [5]; souris, 128 mg/kg, 30 minutes avant passage dans l'actimètre): cet effet n'apparaît plus | motilité spontanée (souris [5]; souris, 8, mais surtout 32 et 128 mg/kg, 2 heures avant passage dans l'actimètre): augmentation de la motilité spontanée | motilité spontanée (souris [5]; souris, 32 et 64 mg/kg, 30 minutes avant passage dans l'actimètre): augmentation de la motilité | nombre de combats (souris [6]): diminue le nombre de combats | Ind. Activité ([7]; Exp 1, 0,1 mg/kg): 1,15 | % d'augmentation du coussinet (mm) m ([7]; Exp 1, 0,1 mg/kg): 10,6% | Ind. Activité ([7]; Exp 1, 1 mg/kg): 1,10 | % d'augmentation du coussinet (mm) m ([7]; Exp 1, 1 mg/kg): 10,2% | Ind. Activité ([7]; Exp 1, 10 mg/kg): 1,29 | % d'augmentation du coussinet (mm) m ([7]; Exp 1, 10 mg/kg): 12,0% | Ind. Activité ([7]; Exp 1, 100 mg/kg): 1,59 | % d'augmentation du coussinet (mm) m ([7]; Exp 1, 100 mg/kg): 14,7^x % | Ind. Activité ([7]; Exp 2, 0,1 mg/kg): 1,31 | % d'augmentation du coussinet (mm) m ([7]; Exp 2, 0,1 mg/kg): 11,0% | Ind. Activité ([7]; Exp 2, 1 mg/kg): 1,25 | % d'augmentation du coussinet (mm) m ([7]; Exp 2, 1 mg/kg): 10,5% | Ind. Activité ([7]; Exp 2, 10 mg/kg): 1,34 | % d'augmentation du coussinet (mm) m ([7]; Exp 2, 10 mg/kg): 11,2% | Ind. Activité ([7]; Exp 2, 100 mg/kg): 1,56 | % d'augmentation du coussinet (mm) m ([7]; Exp 2, 100 mg/kg): 13,1% | action immunostimulante ([7]; overall statement in the text): une action immunostimulante
